Species: Rattus norvegicus
Test: DrugMatrix - Regimen: Daily Repeat
Assay type: toxicity, organism-based, Sprague-Dawley
Design: regimen Daily Repeat, gender Male, age 6-8 weeks
Conditions: in vivo, po, route oral GAVAGE, […]; for ABSOLUTE BASOPHIL / ABSOLUTE EOSINOPHIL / ABSOLUTE LYMPHOCYTE / ABSOLUTE MONOCYTE / ABSOLUTE SEGMENTED NEUTROPHIL / BASOPHIL / EOSINOPHIL / ERYTHROCYTE COUNT / HEMATOCRIT / HEMOGLOBIN / LEUKOCYTE COUNT / LYMPHOCYTE / MEAN CORPUSCULAR HEMOGLOBIN / MEAN CORPUSCULAR HEMOGLOBIN CONCENTRATION / MEAN CORPUSCULAR VOLUME / MONOCYTE / NEUTROPHIL / NUCLEATED RED BLOOD CELLS / PLATELET COUNT: tissue Blood; for ALANINE AMINOTRANSFERASE / ALBUMIN / ALKALINE PHOSPHATASE / ASPARTATE AMINOTRANSFERASE / BLOOD UREA NITROGEN / CARBON DIOXIDE / CHLORIDE / CHOLESTEROL / CREATINE PHOSPHOKINASE / CREATININE / GLUCOSE / LACTATE DEHYDROGENASE / LIPASE / PHOSPHORUS / POTASSIUM / SODIUM / TOTAL BILIRUBIN / TOTAL PROTEIN / URIC ACID: tissue Plasma
[1] = 81 mg/kg, 72 h, dose level High, time 3 day
[2] = 81 mg/kg, 120 h, dose level High, time 5 day
[3] = 72 h, dose 8.1 mg/Kg, dose level Low, time 3 day
[4] = 120 h, dose 8.1 mg/Kg, dose level Low, time 5 day

Nc1ccc(Cc2ccc(N)cc2)cc1
ABSOLUTE BASOPHIL [1]: 0 CELLS/uL | ABSOLUTE EOSINOPHIL [1]: 75.33 CELLS/uL | ABSOLUTE LYMPHOCYTE [1]: 15902.67 CELLS/uL | ABSOLUTE MONOCYTE [1]: 589 CELLS/uL | ABSOLUTE SEGMENTED NEUTROPHIL [1]: 3066.33 CELLS/uL | BASOPHIL [1]: 0% | EOSINOPHIL [1]: 0.33% | ERYTHROCYTE COUNT [1]: 5.52 x10E6/uL | HEMATOCRIT [1]: 34.27% | HEMOGLOBIN [1]: 13.27 G/DL | LEUKOCYTE COUNT [1]: 19.63 x10E3/uL | LYMPHOCYTE [1]: 81.33% | MEAN CORPUSCULAR HEMOGLOBIN [1]: 24.13 pg | MEAN CORPUSCULAR HEMOGLOBIN CONCENTRATION [1]: 38.83 G/DL | MEAN CORPUSCULAR VOLUME [1]: 62.2 fL | MONOCYTE [1]: 3% | NEUTROPHIL [1]: 15.33% | NUCLEATED RED BLOOD CELLS [1]: 0.33 /100WBC | PLATELET COUNT [1]: 1017.33 x10E3/uL | ALANINE AMINOTRANSFERASE [1]: 253.67 u/L | ALBUMIN [1]: 3.4 G/DL | ALKALINE PHOSPHATASE [1]: 742 u/L | ASPARTATE AMINOTRANSFERASE [1]: 450.67 u/L | BLOOD UREA NITROGEN [1]: 10.67 mg/dL | CARBON DIOXIDE [1]: 24.33 mmol/L | CHLORIDE [1]: 102.33 MEQ/L | CHOLESTEROL [1]: 143.67 mg/dL | CREATINE PHOSPHOKINASE [1]: 1027.33 u/L | CREATININE [1]: 0.14 mg/dL | GLUCOSE [1]: 152 mg/dL | LACTATE DEHYDROGENASE [1]: 723.67 u/L | LIPASE [1]: 11 u/L | PHOSPHORUS [1]: 11.77 mg/dL | POTASSIUM [1]: 5.87 MEQ/L | SODIUM [1]: 142.6 MEQ/L | TOTAL BILIRUBIN [1]: 0.9 mg/dL | TOTAL PROTEIN [1]: 5.13 G/DL | URIC ACID [1]: 1.27 mg/dL | ABSOLUTE BASOPHIL [2]: 0 CELLS/uL | ABSOLUTE EOSINOPHIL [2]: 0 CELLS/uL | ABSOLUTE LYMPHOCYTE [2]: 23023 CELLS/uL | ABSOLUTE MONOCYTE [2]: 1729.67 CELLS/uL | ABSOLUTE SEGMENTED NEUTROPHIL [2]: 3714 CELLS/uL | BASOPHIL [2]: 0% | EOSINOPHIL [2]: 0% | ERYTHROCYTE COUNT [2]: 5.81 x10E6/uL | HEMATOCRIT [2]: 34.63% | HEMOGLOBIN [2]: 13.53 G/DL | LEUKOCYTE COUNT [2]: 28.47 x10E3/uL | LYMPHOCYTE [2]: 81% | MEAN CORPUSCULAR HEMOGLOBIN [2]: 23.33 pg | MEAN CORPUSCULAR HEMOGLOBIN CONCENTRATION [2]: 39.1 G/DL | MEAN CORPUSCULAR VOLUME [2]: 59.67 fL | MONOCYTE [2]: 6% | NEUTROPHIL [2]: 13% | NUCLEATED RED BLOOD CELLS [2]: 0 /100WBC | PLATELET COUNT [2]: 1124.33 x10E3/uL | ALANINE AMINOTRANSFERASE [2]: 131.67 u/L | ALBUMIN [2]: 3.4 G/DL | ALKALINE PHOSPHATASE [2]: 589 u/L | ASPARTATE AMINOTRANSFERASE [2]: 255.33 u/L | BLOOD UREA NITROGEN [2]: 14 mg/dL | CARBON DIOXIDE [2]: 28.33 mmol/L | CHLORIDE [2]: 101.67 MEQ/L | CHOLESTEROL [2]: 138.33 mg/dL | CREATINE PHOSPHOKINASE [2]: 541 u/L | CREATININE [2]: 0.23 mg/dL | GLUCOSE [2]: 138.33 mg/dL | LACTATE DEHYDROGENASE [2]: 636.33 u/L | LIPASE [2]: 11.67 u/L | PHOSPHORUS [2]: 9.3 mg/dL | POTASSIUM [2]: 5.58 MEQ/L | SODIUM [2]: 142.97 MEQ/L | TOTAL BILIRUBIN [2]: 0.83 mg/dL | TOTAL PROTEIN [2]: 5.7 G/DL | URIC ACID [2]: 1.2 mg/dL | ABSOLUTE BASOPHIL [3]: 0 CELLS/uL | ABSOLUTE EOSINOPHIL [3]: 0 CELLS/uL | ABSOLUTE LYMPHOCYTE [3]: 10998 CELLS/uL | ABSOLUTE MONOCYTE [3]: 210.33 CELLS/uL | ABSOLUTE SEGMENTED NEUTROPHIL [3]: 1658.33 CELLS/uL | BASOPHIL [3]: 0% | EOSINOPHIL [3]: 0% | ERYTHROCYTE COUNT [3]: 5.48 x10E6/uL | HEMATOCRIT [3]: 34.13% | HEMOGLOBIN [3]: 13.5 G/DL | LEUKOCYTE COUNT [3]: 12.87 x10E3/uL | LYMPHOCYTE [3]: 85.67% | MEAN CORPUSCULAR HEMOGLOBIN [3]: 24.7 pg | MEAN CORPUSCULAR HEMOGLOBIN CONCENTRATION [3]: 39.6 G/DL | MEAN CORPUSCULAR VOLUME [3]: 62.3 fL | MONOCYTE [3]: 1.67% | NEUTROPHIL [3]: 12.67% | NUCLEATED RED BLOOD CELLS [3]: 0 /100WBC | PLATELET COUNT [3]: 1052.33 x10E3/uL | ALANINE AMINOTRANSFERASE [3]: 74.67 u/L | ALBUMIN [3]: 3.93 G/DL | ALKALINE PHOSPHATASE [3]: 451 u/L | ASPARTATE AMINOTRANSFERASE [3]: 94.33 u/L | BLOOD UREA NITROGEN [3]: 12 mg/dL | CARBON DIOXIDE [3]: 24 mmol/L | CHLORIDE [3]: 102.67 MEQ/L | CHOLESTEROL [3]: 79 mg/dL | CREATINE PHOSPHOKINASE [3]: 294.67 u/L | CREATININE [3]: 0.2 mg/dL | GLUCOSE [3]: 157.33 mg/dL | LACTATE DEHYDROGENASE [3]: 177 u/L | LIPASE [3]: 12.33 u/L | PHOSPHORUS [3]: 12.33 mg/dL | POTASSIUM [3]: 5.95 MEQ/L | SODIUM [3]: 143.97 MEQ/L | TOTAL BILIRUBIN [3]: 0.17 mg/dL | TOTAL PROTEIN [3]: 5.47 G/DL | URIC ACID [3]: 1.27 mg/dL | ABSOLUTE BASOPHIL [4]: 0 CELLS/uL | ABSOLUTE EOSINOPHIL [4]: 0 CELLS/uL | ABSOLUTE LYMPHOCYTE [4]: 11058.67 CELLS/uL | ABSOLUTE MONOCYTE [4]: 46 CELLS/uL | ABSOLUTE SEGMENTED NEUTROPHIL [4]: 1295.33 CELLS/uL | BASOPHIL [4]: 0% | EOSINOPHIL [4]: 0% | ERYTHROCYTE COUNT [4]: 5.5 x10E6/uL | HEMATOCRIT [4]: 34.53% | HEMOGLOBIN [4]: 13.8 G/DL | LEUKOCYTE COUNT [4]: 12.4 x10E3/uL | LYMPHOCYTE [4]: 89.67% | MEAN CORPUSCULAR HEMOGLOBIN [4]: 25.13 pg | MEAN CORPUSCULAR HEMOGLOBIN CONCENTRATION [4]: 39.97 G/DL | MEAN CORPUSCULAR VOLUME [4]: 62.83 fL | MONOCYTE [4]: 0.33% | NEUTROPHIL [4]: 10% | NUCLEATED RED BLOOD CELLS [4]: 0 /100WBC | PLATELET COUNT [4]: 1265 x10E3/uL | ALANINE AMINOTRANSFERASE [4]: 63.67 u/L | ALBUMIN [4]: 4.2 G/DL | ALKALINE PHOSPHATASE [4]: 474 u/L | ASPARTATE AMINOTRANSFERASE [4]: 88.67 u/L | BLOOD UREA NITROGEN [4]: 11.33 mg/dL | CARBON DIOXIDE [4]: 35.33 mmol/L | CHLORIDE [4]: 100.33 MEQ/L | CHOLESTEROL [4]: 59.33 mg/dL | CREATINE PHOSPHOKINASE [4]: 280.67 u/L | CREATININE [4]: 0.16 mg/dL | GLUCOSE [4]: 138.67 mg/dL | LACTATE DEHYDROGENASE [4]: 317.67 u/L | LIPASE [4]: 10.67 u/L | PHOSPHORUS [4]: 10.57 mg/dL | POTASSIUM [4]: 6.26 MEQ/L | SODIUM [4]: 144.83 MEQ/L | TOTAL BILIRUBIN [4]: 0.2 mg/dL | TOTAL PROTEIN [4]: 5.93 G/DL | URIC ACID [4]: 1.4 mg/dL
